Data set [1] in a line: Volatility of perfuming compounds (Tables 4 to 10), with top/middle/bottom note type. The format is physicochemical. In outline: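 Note type follows from air volatility (μg/l): bottom 49–0.1, middle 99–50, top 70,000–100. Compounds are listed within watery, green, fruity, citrus, sweet, gourmand and woody families.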
Data set [2] can be described thus: Odor threshold and odor value of perfuming compounds (Tables 4 to 10).
Where [3] appears, read: note type (Top/Middle/Bottom) by volatility, perfuming compounds having a green note.
Setting [4] is: perfuming compounds having a green note.
[5] abbreviates: Table 6, perfuming compounds having a fruity note.
The mark [6] stands for this setting: Table 6, perfuming compounds having a fruity note, note type by volatility.
The mark [7] stands for this setting: Table 8, perfuming compounds having a sweet note.
Where [8] appears, read: Table 8, perfuming compounds having a sweet note, note type by volatility.
The mark [9] stands for this setting: Table 9, perfuming compounds having a gourmand note, note type by volatility.
Setting [10] is: Table 7, citrus note, top, middle or bottom note.
[11] abbreviates: Table 7, citrus note, equals volatility divided by odor threshold.

Data on ten compounds can be found in US20240301319A1, “PERFUMING COMPOSITIONS” (FIRMNICH SA, priority 2017, published 2024).

Consider `N#CC(=C1CCCCC1)c1ccccc1` [CYCLOHEXYLIDENE(PHENYL)ACETONITRILE], for which the Type entry in data set [1] (setting [3]) is on record as “Bottom”. Further, the “Volatility (μg/l air)” value in data set [1] (setting [4]) is given as 0.96 μg/l air. In addition, the “Odor Threshold (μg/l air)” value in data set [2] (setting [4]) is 3.31E−04 μg/l air.

As to “(−)-(1S)-2,6,6-TRIMETHYL-BICYCLO[3.1.1]HEPT-2-ENE”, in data set [1] (setting [3]), the Type result is on record as “Top”. Also, in data set [1] (setting [4]), the “Volatility (μg/l air)” value was 33722.60 μg/l air. The “Odor Threshold (μg/l air)” value in data set [2] (setting [4]) is recorded as 1.02E−01 μg/l air.

On to `CC(C)C(=O)OCCc1ccccc1` [2-PHENYLETHYL ISOBUTYRATE], for which the Volatility is given as 67.38 μg/l air in data set [1] (setting [5]); 67.38 μg/l air in data set [1] (setting [7]); 67.38 μg/l air in data set [1] (Table 9, gourmand note). The Type entry in data set [1] (setting [6]), in data set [1] (setting [8]) and in data set [1] (setting [9]) was “Middle” in each case. Further, the “Odor Threshold” value in data set [2] (setting [5]) worked out at 6.70E−03 μg/l air; in data set [2] (setting [7]) it was 6.70E−03 μg/l air; in data set [2] (Table 9, gourmand note) it was 6.70E−03 μg/l air. Further, the “Odor Value” in data set [2] (setting [5]) and in data set [2] (setting [7]) was 1.01E+04 throughout.

With `CCCCCCCC(=O)OCC` [ethyl octanoate], the Type result in data set [1] (setting [3]) is “Top”. Moreover, the “Volatility (μg/l air)” value in data set [1] (setting [4]) is on record as 800.05 μg/l air. For the same compound, in data set [2] (setting [4]), the “Odor Threshold (μg/l air)” value was 5.30E−03 μg/l air.

Take `CCCCC[C@H]1C(=O)CC[C@@H]1CC(=O)OC` (racemic) [methyl 2-((1RS,2RS)-3-oxo-2-pentylcyclopentyl)acetate]: the “Volatility (μg/l air)” value in data set [1] (Table 7, citrus note) was determined as 2.12 μg/l air. In addition, the Type result in data set [1] (setting [10]) is reported as “Bottom”. The “Odor Threshold (μg/l air)” value in data set [2] (Table 7, citrus note) is 5.77E−04 μg/l air. In addition, the “Odor Value” in data set [2] (setting [11]) is given as 3.67E+03.

With `CCCCCC(=O)O` [HEXANOIC ACID], the Volatility was 197.90 μg/l air in data set [1] (setting [7]) and 197.90 μg/l air in data set [1] (Table 9, gourmand note). The Type result in data set [1] (setting [8]), in data set [1] (setting [9]) and in data set [1] (setting [3]) was “Top” in each case. Further, in data set [1] (setting [4]), the “Volatility (μg/l air)” value worked out at 197.90 μg/l air. The “Odor Threshold” value is 1.82E−02 μg/l air in data set [2] (setting [7]) and 1.82E−02 μg/l air in data set [2] (Table 9, gourmand note). For the same compound, in data set [2] (setting [7]), the “Odor Value” came to 1.09E+04. Further, the “Odor Threshold (μg/l air)” value in data set [2] (setting [4]) came to 1.82E−02 μg/l air.

For the compound `CC/C=C\CC/C=C/C=O` [(2E,6Z)-2,6-NONADIENAL″], the “Volatility (μg/l air)” value in data set [1] (Table 4, watery note) amounted to 632.43 μg/l air. In data set [1] (Table 4, watery note, top, middle or bottom note), the Type result is on record as “TOP (perfuming compounds having a volatility ranging from 70,000 to 100 μg/l in air are referred to as “top notes”)”. Moreover, the “Odor Threshold (μg/l air)” value in data set [2] (Table 4, watery note) worked out at 1.46E−04 μg/l air. The “Odor Value” in data set [2] (Table 4, watery note, equals volatility divided by odor threshold) was 4.34E+06.

`C=CC(C)CC(=O)CC(C)C` (racemic): in data set [1] (setting [5]), the Volatility stood at 4203.89 μg/l air. Also, the Type result in data set [1] (setting [6]) is on record as “TOP (perfuming compounds having a volatility ranging from 70,000 to 100 μg/l in air are referred to as “top notes”)”; in data set [1] (setting [10]), “Top”. Moreover, the “Volatility (μg/l air)” value in data set [1] (Table 7, citrus note) amounted to 4203.89 μg/l air. In data set [2] (Table 7, citrus note), the “Odor Threshold (μg/l air)” value was found to be 2.78E−01 μg/l air. For the same compound, the “Odor Value” in data set [2] (setting [11]) came to 1.51E+04.

On to `CCCCCCOC(=O)CCCCC` [HEXYL HEXANOATE], for which the Volatility in data set [1] (setting [5]) is 105.52 μg/l air. Besides, the Type entry in data set [1] (setting [6]) is recorded as “TOP (perfuming compounds having a volatility ranging from 70,000 to 100 μg/l in air are referred to as “top notes”)”. Moreover, in data set [2] (setting [5]), the “Odor Threshold” value is reported as 9.98E−02 μg/l air and the “Odor Value” is recorded as 1.06E+03.

As to `C/C=C/c1ccc(OC)cc1` [1-methoxy-4-[(1E)-1-propen-1-yl]benzene], the Volatility was 184.60 μg/l air in data set [1] (setting [5]); 184.60 μg/l air in data set [1] (setting [7]); 184.60 μg/l air in data set [1] (Table 9, gourmand note). The Type entry in data set [1] (setting [6]) was “TOP (perfuming compounds having a volatility ranging from 70,000 to 100 μg/l in air are referred to as “top notes”)”; in data set [1] (setting [8]), “Top”; in data set [1] (setting [9]) it was “Top”. The “Odor Threshold” value stood at 1.23E−03 μg/l air in data set [2] (setting [7]) and 1.23E−03 μg/l air in data set [2] (Table 9, gourmand note). Further, the “Odor Value” in data set [2] (setting [7]) was found to be 1.51E+05.
